Laboratory results reported in publication PMC8705706, “Benzimidazole Derivatives as New and Selective Inhibitors of Arginase from Leishmania mexicana with Biological Activity against Promastigotes and Amastigotes” (International Journal of Molecular Sciences, 2021).
Structures can show the parent of a compound that is named as a salt.

Key:
promastigotes = conditions: cited from earlier work
[1] = molecular target: recombinant arginase from Leishmania mexicana (LmARG) (Leishmania mexicana, UniProt Q6TUJ5); test: Inhibition of recombinant LmARG, colorimetric urea assay; assay type: biochemical; conditions: for inhibition at 200 µM: read-out: % Inhibition LmARG [200 μM]; for Inhibition behavior of LmARG: I50 curves; for IC50: recombinant LmARG, read-out: I50 (concentration that inhibits 50% enzyme activity), LmARG
Experimental: (§1) The activity of the recombinant arginases was measured in a colorimetric assay with some modifications. Briefly, the enzyme (2 µg) was previously activated with 1 mM MnCl2, 100 mM Tris-HCl, pH 8 during 15 min at 37 °C. Thereafter, 50 mM L-arginine was added, and the reaction was stopped after 10 min using 30 µL of an acid mixture (H2SO4, H3PO4 and H2O [1:3:7]), and 20 µL of 245 mM of α-isonitrosopropiophenone (dissolved in ethanol). Samples were heated in a thermocycler at 95 °C for 1 h. The urea in the samples was measured at 550 nm in a Synergy H1 Hybrid Multi-Mode Microplate Reader (BioTek).
(§2) The fifty molecules with the highest docking score were selected for inhibition studies that were made under the conditions mentioned above, adding the respective compound (dissolved in DMSO) at a concentration of 200 µM, keeping a final 10% DMSO concentration. The concentration that inhibits 50% of the enzyme activity (I50) was determined through curves at different compound concentrations. The I50 was obtained fitting the curves to the equation reported by Téllez-Valencia, et al., 2002 [25].

[2] = test system: L. amazonensis promastigotes; parameters: method as in PMID 33198198; conditions: cited from earlier work
[3] = test system: Promastigotes of L. mexicana (MNYC/BZ/62/M379); test: Biological activity against promastigotes, resazurin; assay type: cell-based, Leishmania mexicana; conditions: 48 h
Experimental: Promastigotes of L. mexicana (MNYC/BZ/62/M379 reference strain) were grown in Schneider’s medium supplemented with fetal bovine serum 10% (v/v), ampicillin (100 U/mL)/streptomycin (100 µg/mL). Parasites were collected at log phase to assess the compounds and 5 × 10^5 promastigotes were seeded in a 96-wells plate. Compounds were previously dissolved in dimethyl sulfoxide (DMSO) up to a concentration of 1 mg/mL. Thereafter, serial dilutions were made with culture medium from 100 µg/mL to 0.8 µg/mL and then they were added to the wells by triplicates. Parasites non treated and treated with Glucantime, Amphotericin B and Miltefosine were included as […]. Parasites were incubated at 26 °C during 48 h and resazurin 2.5 mM was added at the end into each well. Afterwards, fluorescence intensity was measured with excitation/emission 535/590 nm in a spectrofluorometer (Infinite 200, Tecan Group Ltd., Mannedorf, Switzerland). Finally, half maximal inhibitory concentration (IC50) was determined through a Probit analysis. The assays were made by triplicate in 3 independent experiments.

[4] = test system: amastigote of L. mexicana; test: Biological activity against intracellular amastigotes in J774.2 macrophages, resazurin; assay type: cell-based, Leishmania mexicana; conditions: intracellular L. mexicana amastigotes in J774.2 macrophages, 48 h
Experimental: Biological activity of the benzimidazole derivatives was also evaluated against the amastigote of L. mexicana. For this, 5 × 10^4 murine macrophages J774.2 (ATCC® TIB-67) per well were grown in a plate of 96 wells with RPMI medium at […], 5% CO2 during 24 h. The cells were infected with promastigotes in log phase in a 10:1 proportion (parasite: macrophage) and they were incubated at 37 °C, 5% CO2 during 24–48 h. A wash with RPMI medium to remove the not-infected promastigotes was made. Compounds were added in a serial dilution from 100 µg to 0.8 µg/mL in triplicate and were incubated at 37 °C, 5% CO2 for 48 h. Glucantime, Amphotericin B and Miltefosine were used as reference drugs. Then, the cells were lysed with a non-complemented Schneider’s medium lysis solution with SDS 0.01%, after incubating for 20 min the lysis solution was removed. Afterwards, Schneider medium was added incubating at 26 °C during four days at room temperature to differentiate intracellular amastigotes from free amastigotes. Thereafter, 20 µL of resazurin 2.5 mM was added to each well and incubated during 3 h. Fluorescence intensity and IC50 were measured as described for promastigotes. The assays were made by triplicate in 3 independent experiments.

[5] = test system: Murine macrophages J774.2; parameters: method as in Matadamas-Martínez et al., 2019 [28]; conditions: J774.2 murine macrophages; previous study under the same conditions; ref Matadamas-Martínez et al., 2019 [28]; cited from earlier work
human arginase 1 (HsARG) = molecular target: T1, human arginase 1 (HsARG) (Homo sapiens, UniProt P05089); test: Inhibition of recombinant human arginase 1, colorimetric urea assay; assay type: biochemical; conditions: for Selectivity LmARG versus HsARG: comparison of inhibition of LmARG and HsARG; for Inhibition of recombinant HsARG: highest concentration possible to be tested, 1 mM
T1 construct: made in house; host or cells: E. coli BL21(DE3)pLysS
T1 sequence (P05089 1-322): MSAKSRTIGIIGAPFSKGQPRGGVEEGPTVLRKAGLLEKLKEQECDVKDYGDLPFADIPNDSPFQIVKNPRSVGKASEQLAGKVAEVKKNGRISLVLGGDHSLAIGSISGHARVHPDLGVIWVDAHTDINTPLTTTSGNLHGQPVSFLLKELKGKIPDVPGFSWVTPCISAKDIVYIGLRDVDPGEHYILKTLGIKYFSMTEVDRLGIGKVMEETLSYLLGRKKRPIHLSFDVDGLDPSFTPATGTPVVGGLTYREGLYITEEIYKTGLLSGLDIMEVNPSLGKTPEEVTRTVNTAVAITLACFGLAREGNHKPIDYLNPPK
Experimental: as §1, §2

[6] = Cytotoxicity assay, resazurin; assay type: cell-based; conditions: mouse, J774.2 murine macrophages, maximum concentration evaluated
Experimental: Murine macrophages J774.2 (ATCC® TIB-67) (5 × 10^4 cells/well) were grown in plates of 96 wells for 24 h at 37 °C in 5% CO2. Thereafter, compounds were added in serial diluted concentrations (100 to 0.8 µg/mL) and they were incubated during 24 h. The cellular vitality was evaluated using resazurin, adding 20 µL to each well at 2.5 mM incubating 4 h. Finally, the cytotoxic concentration (CC50) was determined through a Probit analysis. The assays were made by triplicate in 3 independent experiments. CC50 values of Amphotericin B, Miltefosine and Glucantime were taken from a previous study performed under the same conditions by our research group.

N=C(NO)NCC[C@H](N)C(=O)O [nor-NOHA]
EC50 in promastigotes (promastigotes): millimolar order

COC(=O)Nc1nc2ccc(Cl)cc2n1C [Compound 8, Methyl (6-chloro-1-methyl-1H-benzimidazol-2-yl)carbamate]
inhibition at 200 µM [1]: 40%

O=C(/C=C/c1ccc(O)c(O)c1)Nc1ccccc1 [CAPA, caffeic acid phenylamide]
IC50 [2]: 82.6 µM

CCCCCCCCCCCCCCCCOP(=O)([O-])OCC[N+](C)(C)C [Miltefosine]
IC50 ([3]; Leishmania mexicana): 8.1 µM | IC50 ([4]; Leishmania mexicana): 8.6 µM | CC50 [5]: 141 µM

COC(=O)Nc1nc2ccc(Cl)cc2n1C (hydrate or solvate) [Compound 8, Methyl (6-chloro-1-methyl-1H-benzimidazol-2-yl)carbamate]
melting point: 191.3 to 192.4 °C

CSc1nc2cc(N3CCNCC3)c(Cl)cc2[nH]1 [Compound 6, 6-Chloro-2-(methylthio)-5-(piperazin-1-yl)-1H-benzimidazole]
inhibition at 200 µM [1]: 46%

CSc1nc2cc(C(N)=O)c(Cl)cc2[nH]1 [Compound 2, 6-Chloro-2-(methylthio)-1H-benzimidazole-5-carboxamide]
Inhibition behavior of LmARG [1]: cooperative behavior | inhibition at 200 µM [1]: 100% | IC50 [1]: 82 µM | Selectivity LmARG versus HsARG (human arginase 1 (HsARG)): selective to the enzyme from parasite | Inhibition of recombinant HsARG (human arginase 1 (HsARG)): none of the compounds inhibit completely the enzyme | IC50 ([3]; Leishmania mexicana): 132 µM | IC50 ([4]; Leishmania mexicana): 101 µM | CC50 at 24 h ([6]; J774.2 macrophages): > 414 µM

CSc1nc2cc(N3CCNCC3)c(Cl)cc2[nH]1 (as salt: HCl) [Compound 6, 6-Chloro-2-(methylthio)-5-(piperazin-1-yl)-1H-benzimidazole]
melting point: 235 to 237 °C

CCCSc1ccc2c(c1)nc(NC(=O)OC)n2C [Compound 9, Methyl (1-methyl-5-(propylthio)-1H-benzimidazol-2-yl)carbamate]
inhibition at 200 µM [1]: 36% | melting point: 120.5 to 122.1 °C

COC(=O)c1cc2nc(S)[nH]c2cc1Cl [Compound 15]
inhibition at 200 µM [1]: 25%

CCCSc1ccc(NC)c(N)c1 [Compound 13]
inhibition at 200 µM [1]: 27%

meglumine antimoniate [Glucantime]
IC50 [3]: 101 µM | IC50 [4]: 35 µM | CC50 [5]: > 273 µM

NC(=NCCC[C@H](N)C(=O)O)NO [NOHA]
EC50 in promastigotes (promastigotes): millimolar order

COC(=O)c1cc2c(cc1Cl)nc(S)n2C [Compound 16]
inhibition at 200 µM [1]: 25%

C[C@@H]1[C@H](O)[C@@H](C)/C=C/C=C/C=C/C=C/C=C/C=C/C=C/[C@H](O[C@@H]2O[C@H](C)[C@@H](O)[C@H](N)[C@@H]2O)C[C@@H]2O[C@](O)(C[C@@H](O)C[C@@H](O)[C@H](O)CC[C@@H](O)C[C@@H](O)CC(=O)O[C@H]1C)C[C@H](O)[C@H]2C(=O)O [Amphotericin B]
IC50 ([3]; Leishmania mexicana): 0.89 µM | IC50 ([4]; Leishmania mexicana): 1.3 µM | CC50 [5]: 7.4 µM

COC(=O)c1cc2c(cc1Cl)nc(SCC=NNC(N)=O)n2C [Compound 3, Methyl 2-((2-(2-carbamoylhydrazineylidene)ethyl)thio)-5-chloro-1-methyl-1H-benzimidazole-6-carboxylate]
inhibition at 200 µM [1]: 60% | melting point: 196.7 to 197.1 °C

COC(=O)Nc1nc2cc(Cl)ccc2n1C [Compound 1, Methyl (5-chloro-1-methyl-1H-benzimidazol-2-yl)carbamate]
Inhibition behavior of LmARG [1]: cooperative behavior | inhibition at 200 µM [1]: 100% | IC50 [1]: 52 µM | Selectivity LmARG versus HsARG (human arginase 1 (HsARG)): selective to the enzyme from parasite | Inhibition of recombinant HsARG (human arginase 1 (HsARG)): none of the compounds inhibit completely the enzyme | IC50 ([3]; Leishmania mexicana): 64 µM | IC50 ([4]; Leishmania mexicana): 32 µM | CC50 at 24 h [6]: > 417 µM

CNc1cc(Cl)ccc1N [Compound 12]
inhibition at 200 µM [1]: 30%

CC(=O)c1nc2cc(Cl)ccc2n1C [Compound 4]
inhibition at 200 µM [1]: 56%

COC(=O)c1cc2c(cc1Cl)nc(SCCNC(=N)N)n2C [Compound 7, Methyl 5-chloro-2-((2-guanidinoethyl)thio)-1-methyl-1H-benzimidazole-6-carboxylate]
inhibition at 200 µM [1]: 40% | melting point: 172.9 to 173.4 °C

CNc1ccc(Cl)cc1N [Compound 11]
inhibition at 200 µM [1]: 33%

CC(=O)c1nc2ccc(Cl)cc2n1C [Compound 10]
inhibition at 200 µM [1]: 33%

CNC(=O)c1nc2ccc(Cl)cc2n1C [Compound 5]
inhibition at 200 µM [1]: 56%
